Assay results taken from patent publication US4415566A, “Cephalosporin derivatives” (Boehringer Ingelheim GmbH, priority 1979, dated 1983).
≈ marks a conversion by molar mass, not a printed value. Where two headings read alike, the source gives them in different places.

Assays:
[1] = system: E. coli ATCC 11775; test: In vivo activity in mice, E. coli infection; set-up: species or system Female NMRI mice; conditions: Escherichia coli, ATCC11775, iPSC, sc, 168 h; E. coli infection i.p.; s.c. administration; per dose; observation 7 days; read-out: ED50 (dose at which 50% of the animals survived)
Method: (§1) A number of compounds of this invention were tested in vivo in mice against experimental infections. Bacteria E. coli ATCC 11775 and Psuedomonas aeruginosa Walter were used as pathogens. An intraperitoneal infection with 0.2 ml of a 5% suspension of the bacteria was induced. This corresponds to about 2×10^6 E. Coli germs and 8×10^5 pseudomonas germs/mouse. […] The groups with E. coli infection were treated with the test compound three times on the first day (1, 4, and 7 hours post infectionem) and for two days thereafter twice a day. The groups with the pseudomonas infection were treated with the test compound 6 times on the first day (1, 3, 6, 9, 12 and 15 hours post infectionem) and for two days thereafter twice a day. The observation time was in both cases 7 days. The results of these tests with representatives of the penicillins and cephalosporins according to the invention are shown in the following table: […]

[2] = system: Serratia marcescens ATCC 13880; test: Serial dilution test in the microtiter system (MIC), Serrat. marcesc. ATCC 13880; format: cell-based; conditions: 18-20 hours, read-out: MIC
Method: (§2) These tests were performed according to the method of the serial dilution test in the microtiter system. The effect of the substances on bacteriostasis was examined in a fluid medium. […] A nutrient medium of the following composition was used. 10 gm of peptone, 8 gm of meat extract-oxoid, 3 gm of sodium chloride, 2 gm of sec. sodium phosphate were diluted with distilled water to […] (pH 7.2-7.4). Only in the test against streptococci 1% of glucose was added. The age of the primary cultures was about 20 hours. The standardization of the pathogen suspension was effected by using a photometer according to "Eppendorf" (test tube dismeter 14 mm, filter 546 nm) with the aid of the turbidity of a comparison suspension consisting of barium sulfate, this suspension being prepared by addition of 3.0 ml of 1% barium chloride solution to 97 ml of 1% sulfuric acid. After the standardization, streptococcus aronson were further diluted to a concentration of 1:15 and the other microorganisms to a concentration of 1:1500 by means of a sodium chloride solution.
(§3) 16 mg of the test substance were put into a 10 ml-measuring flask and filled up to the mark with the solvent. The further dilution series was standardized with distilled water or the respective solvent.
(§4) The cavities of the microtiter plates were filled with 0.2 ml of nutrient medium. Then, 0.01 ml of the corresponding test substance dilution was added and inoculated with 0.01 ml of the standardized suspension. The bacteria were incubated at 37° C. for 18-20 hours. Control tests merely using the solvent were carried out simultaneously.
(§5) The measurement was carried out macroscopically to determine the minimal inhibitory (threshold) concentration, i.e. the lower still bacteriostatically effective concentration.
(§6) Staphylococcus aureus SG 511, Escherichia coli ATCC 11 775, Pseudomonas aeruginosa Hamburgensis and Pseudomonas aeruginosa Walter, Serratia marcescens ATCC 13880, Klebsiella pneumoniae ATCC 10 031 and 272, Proteus mirabilis Hamburgensis, Proteus rettgeri, Enterbacter cloaceae ATCC 13 047 and E. Coli R+TEM (β-lactamase carrier).

[3] = system: Klebsiella pneumoniae 272; test: Serial dilution test in the microtiter system (MIC), Klebs. pneum. 272; format: cell-based
Method: as §2, §3, §4, §5, §6

[4] = system: Enterbacter cloaceae ATCC 13 047; test: Serial dilution test in the microtiter system (MIC), Eb. cloaceae ATCC 13047; format: cell-based
Method: as §2, §3, §4, §5, §6

[5] = system: Psuedomonas aeruginosa Walter; test: In vivo activity in mice, Pseudomonas infection; set-up: species or system Female NMRI mice; conditions: for ED50: Mus musculus, iPSC, sc, 168 h, Pseudomonas infection i.p., s.c. administration, per dose, observation 7 days, read-out: ED50 (dose at which 50% of the animals survived)
Method: as §1

[6] = system: Klebsiella pneumoniae ATCC 10 031; test: Serial dilution test in the microtiter system (MIC), Klebs. pneum. ATCC 10031; format: cell-based
Method: as §2, §3, §4, §5, §6

[7] = system: Escherichia coli ATCC 11 775; test: Serial dilution test in the microtiter system (MIC), E. Coli ATCC 11775; format: cell-based
Method: as §2, §3, §4, §5, §6

[8] = system: Proteus mirabilis Hamburgensis; test: Serial dilution test in the microtiter system (MIC), Prot. mirabilis; format: cell-based
Method: as §2, §3, §4, §5, §6

[9] = system: Pseudomonas aeruginosa Walter; test: Serial dilution test in the microtiter system (MIC), Pseud. aerug. Walter; format: cell-based
Method: as §2, §3, §4, §5, §6

[10] = system: Pseudomonas aeruginosa Hamburgensis; test: Serial dilution test in the microtiter system (MIC), Pseud. aerug. Hbg.; format: cell-based
Method: as §2, §3, §4, §5, §6

[11] = system: Proteus rettgeri; test: Serial dilution test in the microtiter system (MIC), Prot. rettgeri; format: cell-based; conditions: Providencia rettgeri
Method: as §2, §3, §4, §5, §6

[12] = system: E. Coli ATCC 9637; test: Serial dilution test in the microtiter system (MIC), E. Coli ATCC 9637; format: cell-based; conditions: Escherichia coli, ATCC9637
[13] = system: Staphylococcus aureus SG 511; test: Serial dilution test in the microtiter system (MIC), S. aureus SG 511; format: cell-based; conditions: SG511, Table IV, S. aureus SG 511, 37° C., 18-20 hours, read-out: MIC
Method: as §2, §3, §4, §5, §6

[14] = ATCC13880, Table III, Serrat. marcesc. ATCC 13880, 37° C.
[15] = ATCC13880, Table IV, Serr. marcesc. ATCC 13880, 37° C.
[16] = Table IV, Eb. cloaceae, 37° C., 18-20 hours, read-out: MIC
[17] = Table IV, Klebs. pneum. ATCC 10031, 37° C., 18-20 hours, read-out: MIC
[18] = Table IV, E. Coli ATCC 11775, 37° C., 18-20 hours, read-out: MIC
[19] = Table IV, Prot. mir. Hbg., 37° C., 18-20 hours, read-out: MIC
[20] = Table IV, Prot. rettg., 37° C., 18-20 hours, read-out: MIC

Compound | ED50 [1] [mg/kg] | MIC [2, 14] [µg/mL] | MIC [3]; 272 [µg/mL] | ED50 [5] [mg/kg] | MIC [6] [µg/mL] | MIC [8] [µg/mL] | MIC [9] [µg/mL] | MIC [10] [µg/mL] | MIC [2, 15] [µg/mL] | MIC [4, 16] [µg/mL] | MIC [6, 17] [µg/mL] | MIC [7, 18] [µg/mL] | MIC [8, 19] [µg/mL] | MIC [13] [µg/mL] | MIC [11, 20] [µg/mL] | MIC [7] [µg/mL] | also measured
CC1(C)S[C@@H]2[C@H](NC(=O)[C@H](NC(=O)Nc3cnc(NCc4cccs4)nc3O)c3ccc(O)cc3)C(=O)N2[C@H]1C(=O)O [C, D-α-{3-[4-Hydroxy-2-(2'-thienylmethylamino)-5-pyrimidinyl]-ureido}-p-hydroxy-benzyl-penicillin sodium] | 0.8 | 0.5 | 2 | 2.5 | 2 | 0.25 | 1 | 2 |  |  |  |  |  |  |  |  | MIC ([4]; Table III, Eb. cloaceae ATCC 13047, 37° C., 18-20 hours, read-out: MIC): 0.5 µg/mL; MIC ([7]; Table III, E. Coli ATCC 11775, 37° C., 18-20 hours, read-out: MIC): 0.5 µg/mL; MIC [11]: 0.12 µg/mL; MIC [12]: 0.5 µg/mL
CO/N=C(\C(=O)N[C@@H]1C(=O)N2C(C(=O)O)=C(COC(N)=O)CS[C@H]12)c1ccco1 [Cefuroxim, reference compound] | 37 |  | 4 (≈ 9.43 µM) | > 200 |  |  |  |  | 8 (≈ 18.9 µM) | 32 (≈ 75.4 µM) | 2 (≈ 4.71 µM) | 8 (≈ 18.9 µM) | 0.5 (≈ 1.18 µM) | 1 (≈ 2.36 µM) | 2 (≈ 4.71 µM) |  | animals died ([5]; Pseudomonas infection, s.c., at 200 mg/kg): all animals died
Cc1nnc(SCC2=C(C(=O)O)N3C(=O)[C@@H](NC(=O)Cn4cnnn4)[C@H]3SC2)s1 [Cephazolin, reference compound] |  |  | 2 (≈ 4.4 µM) |  |  | 4 (≈ 8.8 µM) |  |  |  |  | 1 (≈ 2.2 µM) |  |  | 0.06 (≈ 0.132 µM) |  | 4 (≈ 8.8 µM) | 
CC1(C)S[C@@H]2[C@H](NC(=O)[C@H](NC(=O)Nc3cnc(NCc4ccco4)nc3O)c3ccc(O)cc3)C(=O)N2[C@H]1C(=O)O [D, D-α-{3-[4-Hydroxy-2-(2'-furylmethylamino)-5-pyrimidinyl]-ureido}-p-hydroxy-benzyl-penicillin sodium] | 0.8 | 0.5 |  | 1.5 | 4 | 0.25 | 2 |  |  |  |  |  |  |  |  | 1 | MIC ([3]; Table III, Klebs. pneum. 272, 37° C., 18-20 hours, read-out: MIC): 8 µg/mL; MIC [4]: 4 µg/mL; MIC ([10]; Table III, Pseud. aerug. Hbg., 37° C., 18-20 hours, read-out: MIC): 1 µg/mL; MIC ([11]; Table III, Prot. rettgeri, 37° C., 18-20 hours, read-out: MIC): 0.5 µg/mL; MIC ([12]; Table III, E. Coli ATCC 9637, 37° C., 18-20 hours, read-out: MIC): 0.5 µg/mL
Cn1nnnc1SCC1=C(C(=O)O)N2C(=O)[C@@H](NC(=O)[C@H](NC(=O)Nc3cnc(NCc4ccco4)nc3O)c3ccc(O)cc3)[C@H]2SC1 [J] | 0.3 |  |  | 6.3 |  |  | 4 (≈ 5.64 µM) | 8 (≈ 11.3 µM) | 0.25 (≈ 0.352 µM) | 0.5 (≈ 0.704 µM) | 0.5 (≈ 0.704 µM) | 0.25 (≈ 0.352 µM) | 0.12 (≈ 0.169 µM) | 0.5 (≈ 0.704 µM) | 0.5 (≈ 0.704 µM) |  | MIC ([3]; Table IV, Klebs. pneum. 272, 37° C., 18-20 hours, read-out: MIC): 0.5 µg/mL (≈ 0.704 µM)
